Tested on: brain levels of soluble Aβ42, Aβ40
Assay: In vivo Aβ lowering in non-transgenic rodents (MSD electrochemiluminescence)
Parameters: species or system mouse
Conditions: dose 10, s.c., untreated control = 100
Text: To determine whether acute administration of an Aβ lowering agent would reduce Aβ levels in vivo, non-transgenic rodents, e.g. mice or rats were used. Animals treated with the Aβ lowering agent were examined and compared to those untreated or treated with vehicle and brain levels of soluble Aβ42, Aβ40, Aβ38, and Aβ37 were quantitated by Meso Scale Discovery's (MSD) electrochemiluminescence detection technology. Treatment periods varied from hours (h) to days and were adjusted based on the results of the Aβ lowering once a time course of onset of effect could be established.
A typical protocol for measuring Aβ lowering in vivo is shown but it is only one of many variations that could be used to optimize the levels of detectable A. For example, Aβ lowering compounds were formulated in 20% of Captisol® (a sulfo-butyl ether of β-cyclodextrin) in water or 20% hydroxypropyl β cyclodextrin. The Aβ lowering agents were administered as a single oral dose or by any acceptable route of administration to overnight fasted animals. […]
Blood was collected by decapitation and exsanguinations in EDTA-treated collection tubes. Blood was centrifuged at 1900 g for 10 minutes (min) at 4° C. and the plasma recovered and flash frozen for later analysis. The brain was removed from the cranium and hindbrain. The cerebellum was removed and the left and right hemisphere were separated. The left hemisphere was stored at −18° C. for quantitative analysis of test compound levels. The right hemisphere was rinsed with phosphate-buffered saline (PBS) buffer and immediately frozen on dry ice and stored at −80° C. until homogenization for biochemical assays.
Mouse brains from non-transgenic animals were resuspended in 8 volumes of 0.4% DEA (diethylamine)/50 mM NaCl containing protease inhibitors (Roche-11873580001 or 04693159001) per gram of tissue, e.g. for 0.158 g brain, add 1.264 ml of 0.4% DEA. All samples were homogenized in the FastPrep-24 system (MP Biomedicals) using lysing matrix D (MPBio #6913-100) at 6 m/s for 20 seconds. Homogenates were centrifuged at 20800×g for 5 min and supernatants collected. Supernatants were centrifuged at 221.300×g for 50 min. The resulting high speed supernatants were then transferred to fresh eppendorf tubes. Nine parts of supernatant were neutralized with 1 part 0.5 M Tris-HCl pH 6.8 and used to quantify Aβ.
To quantify the amount of Aβ42, Aβ40, Aβ38, and Aβ37 in the soluble fraction of the brain homogenates, simultaneous specific detection of Aβ42, Aβ40, Aβ38, and Aβ37 was performed using MSD's electro-chemiluminescence multiplex detection technology. In this assay purified monoclonal antibodies specific for Abeta37 (JRD/Aβ37/3), Abeta38 (J&JPRD/Aβ38/5), Abeta40 (JRF/cAβ40/28), and Abeta42 (JRF/cAβ(342/26) were coated on MSD 4-plex plates. Briefly, the standards (a dilution of synthetic Aβ42, Aβ40, Aβ38, and Aβ37) were prepared in 1.5 ml Eppendorf tube in Ultraculture, with final concentrations ranging from 10000 to 0.3 pg/m. The samples and standards were co-incubated with Sulfo-tag labelled JRF/rAβ/2 antibody to the N-terminus of Aβ as detector antibody. 50 μl of conjugate/sample or conjugate/standards mixtures were then added to the antibody-coated plate. The plate was allowed to incubate overnight at 4° C. in order to allow formation of the antibody-amyloid complex. Following this incubation and subsequent wash steps the assay was finished by adding read buffer according to the manufacturer's instructions (Meso Scale Discovery, Gaitherburg, Md.).
The SULFO-TAG emits light upon electrochemical stimulation initiated at the electrode. MSD Sector instrument SI6000 was used for signal read-out.
The results are shown in Table 8 (value for untreated animals as control (Ctrl) was set at 100): […]

## C[C@@]1(c2cc(NC(=O)c3ccc(F)cn3)ccc2F)Cn2nncc2C(N)=N1 [Compound 1, N-{3-[(6R)-4-amino-6-methyl-6,7-dihydro[1,2,3]triazolo[1,5-a]pyrazin-6-yl]-4-fluorophenyl}-5-fluoropyridine-2-carboxamide]
2 h after administration
  Aβ40 (% vs Ctrl)_Mean: 47 % vs Ctrl
  Aβ42 (% vs Ctrl)_Mean: 47 % vs Ctrl
4 h after administration
  Aβ40 (% vs Ctrl)_Mean: 73 % vs Ctrl
  Aβ42 (% vs Ctrl)_Mean: 55 % vs Ctrl
